Results reported in patent US7846939B2, “Salts and mixture of 9-oxoacridine-10-acetic acid with 1-alkylamino-1-desoxy-polyols, pharmaceutical compositions containing said agents and treatment methods” (priority 2005, dated 2010).

Tested on: Chlamydia
Assay: Chronic inflammatory diseases of uterus and appendages, 250 mg i.m., 10 injections, with BAT (ofloxacin)
Format: in vivo, human

CC1COc2c(N3CCN(C)CC3)c(F)cc3c(=O)c(C(=O)O)cn1c23 (stereo not drawn) [Basic antibacterial therapy, BAT, ofloxacin]
Alpha-interferon, produced by the peripheral blood leukocytes, induced in culture by the Newcastle disease virus, mean (After treatment): 5.3 log2 IU/ml
Amount of cytoplasmic granules in peripheral blood PNLs, mean (After treatment): 10.2
Gamma-interferon, produced by the peripheral blood leukocytes, induced in culture by staphylococcus enterotoxin A, mean (After treatment): 4.7 log2 IU/ml
Serum interferon, mean (After treatment): 0.8 log2 IU/ml
Alpha-interferon, produced by the peripheral blood leukocytes, induced in culture by the Newcastle disease virus, mean (Before treatment): 5.1 log2 IU/ml
Amount of cytoplasmic granules in peripheral blood PNLs, mean (Before treatment): 8.5
Gamma-interferon, produced by the peripheral blood leukocytes, induced in culture by staphylococcus enterotoxin A, mean (Before treatment): 4.7 log2 IU/ml
Serum interferon, mean (Before treatment): 0.2 log2 IU/ml
Etiological recovery (PCR control): 69%
